Converted amounts (≈) assume the structure as drawn. Where two headings read alike, the source gives them in different places.
Assays:
[1] = test system: trophozoites of P. falciparum; test: Antimalarial activity (Table 2), [3H]-hypoxanthine incorporation; assay type: cell-based, Plasmodium falciparum; details: Plasmodium falciparum
Procedure: g. Bioassay of iron carrier antimalarial activity. The antimalarial activity was assayed by adding the compounds from concentrated stock solutions (in DMSO) to microcultures (24 wells, Costar) containing infected red cells (2.5% hematocrit and 2% parasitemia). The cultures were usually synchronized (4-7 hrs. windows) by incubation in 300 mM Ala, 10 mM TRIS-Cl in conjunction with gelatin flotation and used either at the trophozoite (1-2% parasitemia) or at the ring stage (4-6% parasitemia) of the erythrocyctic cycle. After the indicated time of incubation with drug and either previous to or after washing 3 times with 100 volumes growth medium, the cells were supplemented with 6 μCi of either [^3 H]-hypoxanthine or [^3 H]-Ileu (Amersham, England) per well and parasite growth assessed after 24-48 hours by harvesting the labelled cells onto glass-fiber filters (Tamar, Inc. Jerusalem) and counting of the radioactivity. […]

[2] = Relative iron(III) binding efficiency by competition with EDTA; assay type: physicochemical; details: for rel. Fe binding (b): Table 2, relative to DFO = 1.16, 0.75 mM hydroxamate, 0.15 mM EDTA, 0.15 mM Fe3+ in aqueous methanol; for Pcoeff*Fe binding (a*b): product of relative partition coefficient and relative iron(III) binding; for Relative binding: Table 1, DFO = 100, competition with EDTA in aqueous MeOH
Procedure: c. The relative binding efficiencies of the reversed siderophores (0.75 mM reversed siderophore and 0.15 mM Fe^3+ in aqueous MeOH (MeOH-0.1N NaOAc) were incubated with EDTA (0.15 mM). After equilibration overnight, the fraction of siderophore- Fe^3+ complex present was determined at 430 nm.
(§1) The values for Pcoeff of free RSF ileun2 (the same as SF1ileu) and of leun2 and their respective iron(III) complexes were similar (not shown).

[3] = Partition between n-octanol and saline; assay type: physicochemical; details: for rel. Pcoeff (a): Table 2, relative to L-val-n1 = 1.0; for logP: Table 1, free ligand, read-out: Partition coefficient (converted)
Procedure: e. Partition coefficients were obtained by overnight equilibration of the free reversed siderophores between equal volumes of n-octanol and saline. The concentrations of the ligands in each phase were determined by adding excess iron(III) and measuring the ferric complexes at 430 nm.
as §1

normal red cells = test: Uptake of 59Fe-carrier complexes into normal red cells; assay type: cell-based, human
Procedure: (§2) k. Uptake of radioactive carrier-Fe complexes. DFO and the different SF derivatives were pre-complexed with iron by addition of concentrated stock solutions of 20 mg/ml carriers to ^59 FeCl3 (Amersham, England) in 0.5 ml of 150 mM NaCl, 10 mM Hepes at 3-5 molar excess of carrier for 1 hour at room temperature. To begin the flux, normal or parasitized red cells that had been washed 3 times in saline buffer and resuspended in the same buffer supplemented with 5% bovine serum albumin (BSA), 2.5 mM citrate, 2 mg/ml glucose were added to radioactive ^59 Fe-complexes at a final suspension of 20% hematocrit. After incubation at 37° C., 75 μl suspension was removed in duplicate aliquots for each time point, placed in plastic 15 ml test tube (Starstedt) and centrifuged 1 minute at 2,500 g. The supernatant was removed and the pellet immediately placed on ice. After all sampling was completed the pellets were washed twice in 15 ml of ice cold buffer containing 50 mM EDTA and lysed in distilled water. Radioactivity (Gamma emission, 700-1300 Kev) was counted and the cell number for each sample determined from hemoglobin absorption of the lysate at 410 nm.
Due to the fact that RSF's have markedly greater lipophilicity than DFO, they were expected to faster penetrate and therefore more effectively chelate intracellular iron after short exposure times. Penetration of RSF's into normal and infected red cells was estimated by monitoring uptake of the RSF's-^59 Fe(III) complexes into infected and uninfected cells and compared to DFO. In order to confirm actual uptake of Fe-RSF ileun2 rather than adsorption to the outer membrane, cells were thoroughly washed and lysates were subjected to 80,000g×20 min centrifugation. More than 90% of the total counts were found in the cytosol fraction (results not shown).
FIGS. 8a and 8b show uptake of Fe^59 -carrier complexes into normal and infected red cells. Uptake of ^59 -Fe-RSF (FIG. 8a) and ^59 Fe-DFO (FIG. 8b) into normal (open symbols) and infected (closed symbols) red cells (60% parasitemia, >90% trophozoites). The carriers were pre-complexed to ^59 FeCl3 at 4:1 ration in DMSO with 5 μM external FeCl3 (from methanolic stock solutions). The radioactive complexes were then added to 20% hematocrit cell suspensions and flux was measured. Specific activity was 485000 cpm/nmole and 369000 cpm/nmole for the RSF and DFO uptake experiments, respectively. Cell number was determined from hemoglobin absorption of lysate at 410 nm.

infected red cells = test: Uptake of 59Fe-carrier complexes into infected red cells; assay type: cell-based, human erythrocytes infected with P. falciparum
Procedure: as §2
Penetration of RSF's into normal and infected red cells was estimated by monitoring uptake of the RSF's-^59 Fe(III) complexes into infected and uninfected cells and compared to DFO. In order to confirm actual uptake of Fe-RSF ileun2 rather than adsorption to the outer membrane, cells were thoroughly washed and lysates were subjected to 80,000g×20 min centrifugation.
The carriers were pre-complexed to ^59 FeCl3 at 4:1 ration in DMSO with 5 μM external FeCl3 (from methanolic stock solutions). The radioactive complexes were then added to 20% hematocrit cell suspensions and flux was measured. […] Cell number was determined from hemoglobin absorption of lysate at 410 nm.

[4] = test system: trophozoites of P. falciparum, strain ItG2G1; test: Antimalarial activity (Table 1), [3H]hypoxanthine incorporation; assay type: cell-based; details: Plasmodium falciparum, 48 h
Procedure: f. Parasite cultures. The P. falciparum strains used in the experiments: ItG2G1 (Brazil, provided by Dr. L. H. Miller), D6 (W. African, provided by Dr. A. J. M. Oduola) FCR-3 (Gambian, provided by Dr. J. B. Jensen) and W2 (Indochina, provided by Dr. A. J. M. Oduola), were grown in culture flasks of human erythrocytes by a modified version of Trager and Jensen's method as described by Silfen et al. ((1988) Biochem. Pharmacol. 37: 4269-4276)).
g. Bioassay of iron carrier antimalarial activity. The antimalarial activity was assayed by adding the compounds from concentrated stock solutions (in DMSO) to microcultures (24 wells, Costar) containing infected red cells (2.5% hematocrit and 2% parasitemia). The cultures were usually synchronized (4-7 hrs. windows) by incubation in 300 mM Ala, 10 mM TRIS-Cl in conjunction with gelatin flotation and used either at the trophozoite (1-2% parasitemia) or at the ring stage (4-6% parasitemia) of the erythrocyctic cycle. After the indicated time of incubation with drug and either previous to or after washing 3 times with 100 volumes growth medium, the cells were supplemented with 6 μCi of either [^3 H]-hypoxanthine or [^3 H]-Ileu (Amersham, England) per well and parasite growth assessed after 24-48 hours by harvesting the labelled cells onto glass-fiber filters (Tamar, Inc. Jerusalem) and counting of the radioactivity.
The antimalarial activity of the different chelators was initially evaluated on cultures of trophozoites which were exposed for 24 hours to different concentrations of chelators. Following that period, [^3 H]-hypoxanthine or [^3 H]-Ileu were added and 24 hours later the parasitemia and incorporation of label into macromolecular material was determined.

[5] = Extraction of iron from aqueous FeCl3/citrate into chloroform; assay type: physicochemical; details: 0.3 mM in chloroform vs 0.3 mM FeCl3, 0.3 mM citric acid, 40 mM TRIS, pH 6.9, overnight
Procedure: d. Extractions were performed by overnight equilibration of 0.3 mM chloroform solutions of reversed siderophore with aqueous solutions of 0.3 mM FeCl3, 0.3 mM citric acid, 40 mM TRIS, pH 6.9. The amount of iron taken up into the organic phase was determined by the absorption of the iron+complex at 430 nm. No iron uptake into chloroform solutions devoid of RSF was observed by ion chromatography.

[6] = amino acid side chain, Tanford/Segret's scale as given by Eisenberg 1984; cited from earlier work
[7] = trophozoites, 40 hours exposure, mean of 3-4 experiments, read-out: IC50 (c)

| Structure (SMILES) | IC50 ([1]; 40 h, read-out: IC50 (c)) [µM] | rel. Fe binding (b) [2] | Pcoeff*Fe binding (a*b) [2] | rel. Pcoeff (a) [3] | IC50 [1, 7] [µM] | Uptake kinetics compared with RSF-ileun2 (normal red cells) | Uptake kinetics compared with RSF-ileun2 (infected red cells) | IC50 ([1]; discussion of Table 2, unit inferred, read-out: IC50) [µM] | rel. Fe binding (b) ([2]; listed as L-val n1) | Fe-binding affinity relative to DFO ([2]; percent that of DFO) [%] | Pcoeff*Fe binding (a*b) ([2]; listed as L-val of n1 subfamily) | IC50 [4] [mg/L] | Relative binding [2] | Extraction efficiency [5] | Hydrophobicity [6] | logP [3] | Pcoeff of free ligand vs iron(III) complex ([3]; not shown) |
| --- | --- | --- | --- | --- | --- | --- | --- | --- | --- | --- | --- | --- | --- | --- | --- | --- | --- |
| CC[C@@H](C)[C@@H](NC(=O)CCOCC(CC)(COCCC(=O)N[C@@H](C(=O)N(C)O)[C@H](C)CC)COCCC(=O)N[C@@H](C(=O)N(C)O)[C@H](C)CC)C(=O)N(C)O [(D--ileu) n=2] | 9 ± 3 | 0.298 | 2.4 | 8.2 | – | – | – | – | – | – | – | – | – | – | – | – | – |
| CC[C@H](C)[C@H](NC(=O)COCC(CC)(COCC(=O)N[C@H](C(=O)N(C)O)[C@@H](C)CC)COCC(=O)N[C@H](C(=O)N(C)O)[C@@H](C)CC)C(=O)N(C)O [(L--ileu) n=1] | – | 1.0 | 9.3 | 9.0 | 3 ± 1 | – | – | – | – | – | – | – | – | – | – | – | – |
| CCC(COCC(=O)N[C@@H](CC(C)C)C(=O)N(C)O)(COCC(=O)N[C@@H](CC(C)C)C(=O)N(C)O)COCC(=O)N[C@@H](CC(C)C)C(=O)N(C)O [(L--leu) n=1] | – | 0.23 | 3.86 | 17.0 | 5 ± 2 | Identical uptake kinetics | Identical uptake kinetics | – | – | – | – | – | – | – | – | – | – |
| CCC(COCC(=O)N[C@H](C(=O)N(C)O)C(C)C)(COCC(=O)N[C@H](C(=O)N(C)O)C(C)C)COCC(=O)N[C@H](C(=O)N(C)O)C(C)C [(L--val) n=1] | – | 1.0 | 1.0 | 1.0 | 4 ± 1 | – | – | 4 | 1 | 86 | 1 | – | – | – | – | – | – |
| CCC(COCCC(=O)N[C@H](C(=O)N(C)O)C(C)C)(COCCC(=O)N[C@H](C(=O)N(C)O)C(C)C)COCCC(=O)N[C@H](C(=O)N(C)O)C(C)C [(L--val) n=2] | – | 1.31 | 2.8 | 2.1 | 6 ± 2 | – | – | – | – | – | – | – | – | – | – | – | – |
| CCC(COCCC(=O)N[C@H](C)C(=O)N(C)O)(COCCC(=O)N[C@H](C)C(=O)N(C)O)COCCC(=O)N[C@H](C)C(=O)N(C)O [SF1--D--ala] | 70 ± 13 | 1.25 | 0.37 | 0.3 | – | – | – | – | – | – | – | 45 (≈ 69.2 µM) | 108 | 88 | 1.0 | -0.276 | – |
| CCC(COCCC(=O)N[C@@H](C)C(=O)N(C)O)(COCCC(=O)N[C@@H](C)C(=O)N(C)O)COCCC(=O)N[C@@H](C)C(=O)N(C)O [SF1--L--ala] | 62 ± 10 | 1.25 | 0.37 | 0.3 | – | – | – | – | – | – | – | 40 (≈ 61.5 µM) | 108 | 88 | 1.0 | -0.276 | – |
| CCC(COCCC(=O)N[C@@H](CC(C)C)C(=O)N(C)O)(COCCC(=O)N[C@@H](CC(C)C)C(=O)N(C)O)COCCC(=O)N[C@@H](CC(C)C)C(=O)N(C)O [SF1--L--leu] | 22 ± 4 | 0.12 | 0.9 | 7.4 | – | – | – | – | – | – | – | 17 (≈ 21.9 µM) | 10 | 35 | 3.5 | 1.1 | similar |
| CCC(COCCC(=O)N1CCC[C@H]1C(=O)N(C)O)(COCCC(=O)N1CCC[C@H]1C(=O)N(C)O)COCCC(=O)N1CCC[C@H]1C(=O)N(C)O [SFI--pro] | > 100 | 0.16 | 0.06 | 0.4 | – | – | – | – | – | – | – | > 100 | 14 | 38 | 1.5 | -0.187 | – |

From patent US5430058A, “Pharmaceutical compositions comprising hydroxamate derivatives for iron removal” (Yeda Research and Development Co. Ltd., priority 1993, dated 1995)
